“Also recorded” adds a separate entry of the source.
Tested on: mouse fetal liver erythroblasts
Experiment: mouse fetal liver erythroblast proliferation in erythropoietin containing medium
Type: cell-based
Settings: approximately 10 uM NUP-52A added to the culture; proliferation monitored daily for two days; comparable to JAK2 inhibitor Ruxolitinib (FIG. 4)
Experimental: FIG. 4. Effect of NUP-52A on cell proliferation, differentiation, and enucleation in comparison to ruxolitinib. Ter119 negative mouse fetal liver erythroblasts were purified and cultured in erythropoietin containing medium. NUP-52A (Panels A, B, and C) or Ruxolitinib (Panels D, E, and F) with indicated concentrations were added to the culture media at the start of culture. The cells were cultured for two days. Cell proliferation, differentiation, and enucleation were analyzed using flow cytometry on day 2.
To screen these compounds, an assay using a well-developed Plek2 functional screening system (28) was performed. In this system, mouse fetal liver erythroid progenitors are purified and cultured in erythropoietin containing medium. These cells undergo rapid proliferation closely mimicking accelerated erythropoiesis in MPNs. In these cells, Plek2 is also highly expressed during the culture. This system then may be utilized to test Plek2 inhibitor compounds.
We used mouse fetal liver erythroblasts to test the compound. Approximately 10 uM NUP-52A was added in the fetal liver erythroblast culture and the proliferation of the cells is monitored daily for two days. […] (See FIG. 4).

SMILES: Clc1ccc2c(N3CCNCC3)cc(-c3c[nH]c4ccccc34)nc2c1 [NUP-52A, 7-chloro-4-(piperazin-1-yl)-2-(1H-indol-3-yl)quinoline]
- effect on the proliferation of erythroblasts: potent effects; also recorded: strong inhibitory effects
